Inhibition data for 22 compounds are collected here from US10435399B2, “HDAC6 inhibitory heterocyclic compound” (TAKEDA PHARMACEUTICAL COMPANY LIMITED, priority 2017, dated 2019).

The target in the first assay is T1, HDAC6 enzyme (Homo sapiens, UniProt Q9UBN7).
T1 construct: transducing full length HDAC6 gene into Sf-9 insect cells; GST; purchased SignalChem; host or cells: Sf-9 insect cells
T1 sequence (Q9UBN7 1-1215): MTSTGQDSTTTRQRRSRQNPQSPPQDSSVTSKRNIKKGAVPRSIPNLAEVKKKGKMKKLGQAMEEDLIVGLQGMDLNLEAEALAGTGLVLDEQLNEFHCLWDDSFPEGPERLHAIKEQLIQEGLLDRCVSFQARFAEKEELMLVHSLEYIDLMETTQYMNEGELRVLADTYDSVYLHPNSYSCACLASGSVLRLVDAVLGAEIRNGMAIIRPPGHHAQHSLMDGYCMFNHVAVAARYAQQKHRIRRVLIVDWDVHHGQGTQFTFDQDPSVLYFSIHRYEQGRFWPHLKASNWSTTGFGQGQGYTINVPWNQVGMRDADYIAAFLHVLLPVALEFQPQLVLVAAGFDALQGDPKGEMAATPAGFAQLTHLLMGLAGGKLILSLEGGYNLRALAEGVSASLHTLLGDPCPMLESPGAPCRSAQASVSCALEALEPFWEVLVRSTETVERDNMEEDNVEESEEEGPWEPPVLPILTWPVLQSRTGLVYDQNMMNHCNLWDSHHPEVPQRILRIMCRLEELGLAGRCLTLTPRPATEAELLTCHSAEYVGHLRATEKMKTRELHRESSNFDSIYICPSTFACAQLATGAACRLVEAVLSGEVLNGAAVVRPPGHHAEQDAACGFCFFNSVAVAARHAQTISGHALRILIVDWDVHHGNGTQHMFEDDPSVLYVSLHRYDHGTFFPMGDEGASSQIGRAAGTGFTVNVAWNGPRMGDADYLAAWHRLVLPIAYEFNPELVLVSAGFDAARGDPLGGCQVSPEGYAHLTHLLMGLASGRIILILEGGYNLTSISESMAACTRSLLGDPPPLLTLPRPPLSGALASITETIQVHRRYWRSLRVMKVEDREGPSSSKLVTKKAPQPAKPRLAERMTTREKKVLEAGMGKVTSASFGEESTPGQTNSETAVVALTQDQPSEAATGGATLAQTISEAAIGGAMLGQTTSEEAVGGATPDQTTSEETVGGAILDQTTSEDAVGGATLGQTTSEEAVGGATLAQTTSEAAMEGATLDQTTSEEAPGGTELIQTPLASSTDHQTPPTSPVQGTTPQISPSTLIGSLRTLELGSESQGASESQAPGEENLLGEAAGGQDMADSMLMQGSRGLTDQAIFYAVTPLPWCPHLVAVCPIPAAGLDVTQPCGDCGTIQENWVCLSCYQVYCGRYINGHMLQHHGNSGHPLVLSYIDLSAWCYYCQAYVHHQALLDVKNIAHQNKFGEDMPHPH
The assay is described as follows: HDAC6 enzyme inhibitory activity (HDAC-Glo I/II Assay kit). Type of assay: biochemical. The note with it: 10 μM; wells without enzyme = 100% inhibition; read-out: HDAC6 inhibitory rate (%) (10 μM). The essentials: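 Sf-9-derived GST-purified full-length HDAC6 + cpd, 60 min RT, 24 mM Tris pH 7.5/0.6 mM glutathione/0.01% Tween-20; add HDAC-Glo substrate-developer, 20 min RT; luminescence. No-enzyme = 100% inhibition.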
As to `O=C1c2cc(-c3nnc(C(F)F)o3)cnc2CN1[C@@H]1CCCC[C@H]1NC(=O)C1(F)CCC1` [Example 218, N-((1R,2R)-2-(3-(5-(difluoromethyl)-1,3,4-oxadiazol-2-yl)-5-oxo-5,7-dihydro-6H-pyrrolo[3,4-b]pyridin-6-yl)cyclohexyl)-1-fluorocyclobutanecarboxamide], the inhibition at 10 µM amounted to 100%.
Same read-out and setting: under `O=C1c2cc(-c3nnc(C(F)F)o3)cnc2CN1[C@@H]1CCCC[C@H]1NC(=O)C1(C(F)(F)F)CCC1` [Example 219] stands 100%.
For `O=C1c2cc(-c3nnc(C(F)F)o3)ccc2CN1[C@@H]1CCCC[C@H]1O` [Example 220, 6-(5-(difluoromethyl)-1,3,4-oxadiazol-yl)-2-((1R,2R)-2-hydroxycyclohexyl)-isoindolin-1-one], the inhibition at 10 µM was found to be 94%.
With `O=C1c2cc(-c3nnc(C(F)F)o3)cnc2CN1[C@@H]1CCCC[C@H]1NC(=O)C1(c2ccc(F)cc2)CC1` [Example 221, N-((1R,2R)-2-(3-(5-(difluoromethyl)-1,3,4-oxadiazol-2-yl)-5-oxo-5,7-dihydro-6H-pyrrolo[3,4-b]pyridin-6-yl)cyclohexyl)-1-(4-fluorophenyl)-cyclopropanecarboxamide], the inhibition at 10 µM turned out to be 101%.
Still for that read-out and setting: under `O=C(N[C@@H]1CCCC[C@H]1N1Cc2ncc(-c3nnc(C(F)F)o3)cc2C1=O)c1ccccc1F` [Example 222, N-((1R,2R)-2-(3-(5-(difluoromethyl)-1,3,4-oxadiazol-2-yl)-5-oxo-5,7-dihydro-6H-pyrrolo[3,4-b]pyridin-6-yl)cyclohexyl)-2-fluorobenzamide] stands 99%; under `N#Cc1ccccc1C(=O)N[C@@H]1CCCC[C@H]1N1Cc2ncc(-c3nnc(C(F)F)o3)cc2C1=O` [Example 223, 2-cyano-N-((1R,2R)-2-(3-(5-(difluoro-methyl)-1,3,4-oxadiazol-2-yl)-5-oxo-5,7-dihydro-6H-pyrrolo[3,4-b]-pyridin-6-yl)cyclohexyl)benzamide], 99%.
Same read-out and setting: with `O=C(N[C@@H]1CCCC[C@H]1N1Cc2ncc(-c3nnc(C(F)F)o3)cc2C1=O)c1cccc(F)c1` [Example 224, N-((1R,2R)-2-(3-(5-(difluoromethyl)-1,3,4-oxadiazol-2-yl)-5-oxo-5,7-dihydro-6H-pyrrolo[3,4-b]pyridin-6-yl)cyclohexyl)-3-fluorobenzamide] the figure was 100%; with `N#Cc1cccc(C(=O)N[C@@H]2CCCC[C@H]2N2Cc3ncc(-c4nnc(C(F)F)o4)cc3C2=O)c1` [Example 225, 3-cyano-N-((1R,2R)-2-(3-(5-(difluoro-methyl)-1,3,4-oxadiazol-2-yl)-5-oxo-5,7-dihydro-6H-pyrrolo[3,4-b]pyridin-6-yl)cyclohexyl)benzamide], 98%.
For `O=C(N[C@@H]1CCCC[C@H]1N1Cc2ncc(-c3nnc(C(F)F)o3)cc2C1=O)c1cccc(C(F)(F)F)c1` [Example 226, N-((1R,2R)-2-(3-(5-(difluoromethyl)-1,3,4-oxadiazol-2-yl)-5-oxo-5,7-dihydro-6H-pyrrolo[3,4-b]pyridin-6-yl)cyclohexyl)-3-(trifluoromethyl)-benzamide], the inhibition at 10 µM stood at 99%.
Same read-out and setting: under `O=C1c2cc(-c3nnc(C(F)F)o3)cc(F)c2CN1C[C@H]1COCCN1CC(F)(F)C(F)(F)F` [Example 227, 6-(5-(difluoromethyl)-1.3,4-oxadiazol-2-yl)-4-fluoro-2-(((3S)-4-(2,2,3,3,3-pentafluoropropyl)morpholin-3-yl)-methyl)isoindolin-1-one] stands 100%.
On the same count and under the same terms, with `O=C1c2cc(-c3nnc(C(F)F)o3)cc(F)c2CN1C[C@H]1COCCN1CC(F)(F)C(F)F` [Example 228, 6-(5-(difluoromethyl)-1,3,4-oxadiazol-2-yl)-4-fluoro-2-(((3S)-4-(2,2,3,3-tetrafluoropropyl)morpholin-3-yl)-methyl)isoindolin-1-one] the figure was 98%; with `N#Cc1ccccc1-c1ccccc1N1Cc2ccc(-c3nnc(C(F)F)o3)cc2C1=O` [Example 230, 2′-(6-(5-(difluoromethyl)-1,3,4-oxadiazol-2-yl)-1-oxo-1,3-dihydro-2H-isoindol-2-yl)-biphenyl-2-carbonitrile], 100%; with `N[C@@H]1CCCC[C@H]1N1Cc2ncc(-c3nnc(C(F)F)o3)cc2C1=O` [Example 231, 6-((1R,2R)-2-aminocyclohexyl)-3-(5-(difluoromethyl)-1,3,4-oxadiazol-2-yl)-6,7-dihydro-5H-pyrrolo[3,4-b]pyridin-5-one], 98%.
For the compound `O=C(O[C@@H]1CCCC[C@H]1N1Cc2ccc(-c3nnc(C(F)F)o3)cc2C1=O)N1CCC1` [Example 232, (1R,2R)-2-(6-(5-(difluoromethyl)-1,3,4-oxadiazol-2-yl)-1-oxo-1,3-dihydro-2H-isoindol-2-yl)-cyclohexyl azetidine-1-carboxylate], the inhibition at 10 µM worked out at 98%.
Regarding `O=C(O[C@@H]1CCCC[C@H]1N1Cc2ccc(-c3nnc(C(F)F)o3)cc2C1=O)N1CCCC1` [Example 233, (1R,2R)-2-(6-(5-(difluoromethyl)-1,3,4-oxadiazol-2-yl)-1-oxo-1,3-dihydro-2H-isoindol-2-yl)-cyclohexyl pyrrolidine-1-carboxylate], the inhibition at 10 µM came to 100%.
With `O=C1c2cc(-c3nnc(C(F)F)o3)ccc2CN1CCOCc1ccccc1` [Example 234, 2-(2-(benzyloxy)ethyl)-6-(5-(difluoromethyl)-1,3,4-oxadiazol-2-yl)isoindolin-1-one], the inhibition at 10 µM worked out at 98%.
With `O=C1c2cc(-c3nnc(C(F)F)o3)cnc2CN1[C@@H]1CCCC[C@H]1NC(=O)C1(C(F)F)CC1` [Example 235, 1-(difluoromethyl)-N-((1R,2R)-2-(3-(5-(difluoromethyl)-1,3,4-oxadiazol-2-yl)-5-oxo-5,7-dihydro-6H-pyrrolo[3,4-b]pyridin-6-yl)-cyclohexyl)cyclopropane-carboxamide], the inhibition at 10 µM was 99%.
Still for that read-out and setting: under `O=C1c2cc(-c3nnc(C(F)F)o3)cc(F)c2CN1[C@@H]1CCCC[C@H]1NC(=O)C1(C(F)F)CC1` [Example 236, 1-(difluoromethyl)-N-((1R,2R)-2-(6-(5-(difluoromethyl)-1,3,4-oxadiazol-2-yl)-4-fluoro-1-oxo-1,3-dihydro-2H-isoindol-2-yl)-cyclohexyl)cyclopropanecarbox-amide] stands 98%; under `O=C1c2cc(-c3nnc(C(F)F)o3)cnc2CN1[C@@H]1CCCC[C@H]1NC(=O)C(F)(F)C1CC1` [Example 237], 100%.
On the same count and under the same terms, with `O=C1c2cc(-c3nnc(C(F)F)o3)ccc2CN1c1ccccc1-c1ccccn1` [Example 238, 6-(5-(difluoromethyl)-1,3,4-oxadiazol-2-yl)-2-(2-(pyridin-2-yl)phenyl)isoindolin-1-one] the figure was 100%.
Same read-out and setting: with `O=C1c2ccc(-c3nnc(C(F)F)o3)cc2C(=O)N1C[C@H]1COCCN1S(=O)(=O)C1CC1` [Example 239, 2-(((3S)-4-(cyclopropylsulfonyl)-morpholin-3-yl)methyl)-5-(5-(difluoromethyl)-1,3,4-oxadiazol-2-yl)-1H-isoindole-1,3(2H)-dione] the figure was 99%.

The assay is the same for the next values; noted with them: read-out: HDAC6 inhibitory rate (%) (10 μM).
With `O=C1c2cc(-c3nnc(C(F)F)o3)cc(F)c2CN1C[C@H]1COCCN1CC(F)(F)C(F)(F)C(F)(F)F` [Example 229, 6-(5-(difluoromethyl)-1,3,4-oxadiazol-2-yl)-4-fluoro-2-(((3S)-4-(2,2,3,3,4,4,4-heptafluorobutyl)-morpholin-3-yl)methyl)isoindolin-1-one], the inhibition at 10 µM came out at 100%.
